Results reported in US9295754B2, “Noggin inhibitory compositions for ossification and methods related thereto” (Emory University, priority 2011, dated 2016).
Where a chain is given by its changes, count along the chain named.

Assays:
Noggin = target: T1, Noggin (Homo sapiens, UniProt Q13253); experiment: in vitro cell-based screening assays (luciferase reporter and ALP assays in C2C12 cells); details: BMP-2 +/- Noggin, FIG. 2-5
T1 construct: host or cells: added to mouse C2C12 cells
T1 sequence (Q13253 28-232): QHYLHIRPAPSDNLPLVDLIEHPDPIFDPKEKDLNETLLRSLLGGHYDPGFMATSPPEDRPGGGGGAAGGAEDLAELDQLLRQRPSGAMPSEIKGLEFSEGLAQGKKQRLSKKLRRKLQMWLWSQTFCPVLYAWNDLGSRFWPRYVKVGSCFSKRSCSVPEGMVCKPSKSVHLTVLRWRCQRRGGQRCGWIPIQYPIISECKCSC
Procedure: The known crystals structures of complexes of BMP-2/BMPR-IA, BMP7/Noggin and BMP-2/BMPR-IA/ActR-II and BMPR-II monomer structures were analyzed. Using these structures ternary complexes of BMP-2/BMPR-IA/BMPR-II and BMP-2/Noggin (from BMP7/Noggin) were modeled. Solvent accessibility of complexes and the monomers were computed to identify exact binding regions and the individual residues involved in binding. The entire 430 Å^2 surface area of Noggin that binds to BMP-2 and thus block binding of BMP to BMPR-IA and BMPR-II binding regions were analyzed. Complementary regions in BMP were also evaluated in extensive virtual screenings using LUDI docking procedures using CAP commercially available molecular databases.
Mouse C2C12 cells and Dulbecco's modified Eagle's medium (DMEM) were purchased from ATCC (Manassas, Va.). […] When the flasks reached 80% confluence, the cells were trypsinized and seeded in triplicate at 200,000 cells/well in a 6-well plate for quantitative real-time RT-PCR and alkaline phosphatase (ALP) assays or at 50,000 cells/well in a 12-well plate for the dual-luciferase reporter assay.
The C2C12 cells were plated at 200,000 cells/well in 6-well plates and grown overnight in DMEM containing 10% FBS. […] The ALP activity was measured in triplicate using an ALP assay kit (Sigma-Aldrich, St. Louis, Mo.) in microtiter plates. […]

bone growth = experiment: Collagen disc implantation with Noggin-blockers and BMP-2 in rat ectopic model; type: in vivo, Harlan athymic rats; details: for Average / Results: 100ul, collagen carrier, chest implant, 4 weeks
Description: Harlan athymic rats about 5-6 weeks of age were chest implanted with a collegan disc and doses of N50 in combination with BMP-2. After 4 weeks the rats were sacrificed and evaluated for bone growth.

[1] = test system: fetal rat calvarial osteoblast primary cell cultures; experiment: BMP-induced bone nodules in fetal rat calvarial osteoblast primary cell cultures; type: cell-based; details: FIG. 6
endogenous Noggin = target: T2, endogenous Noggin (Mus musculus, UniProt P97466); experiment: BMP-induced ALP activity in C2C12 cells without exogenously added Noggin; type: cell-based; details: absence of exogenously added Noggin, FIG. 8
T2 construct: in the absence of exogenously added Noggin in C2C12 cells; endogenous in cells; host or cells: mouse C2C12 cells (ATCC)
T2 sequence (P97466 28-232): T1 sequence (Q13253 28-232) with A67P
Procedure: Mouse C2C12 cells and Dulbecco's modified Eagle's medium (DMEM) were purchased from ATCC (Manassas, Va.). The non-heat inactivated fetal bovine serum (FBS) was purchased from HyClone Laboratories, Inc. (Logan, Utah). The C2C12 cells at passages 4 to 7 were subcultured in T-75 cm2 flasks in DMEM supplemented with 10% FBS at 37° C. in 5% CO2 with humidification. When the flasks reached 80% confluence, the cells were trypsinized and seeded in triplicate at 200,000 cells/well in a 6-well plate for quantitative real-time RT-PCR and alkaline phosphatase (ALP) assays or at 50,000 cells/well in a 12-well plate for the dual-luciferase reporter assay.
The C2C12 cells were plated at 200,000 cells/well in 6-well plates and grown overnight in DMEM containing 10% FBS. On day 2, the culture medium was replaced with DMEM containing 2% FBS and the cells were treated with 100 ng/ml of BMP-2, +/−various concentrations of the Noggin-interacting compound, and +/−100 ng/ml of Noggin for 72 hours. […] The ALP activity was measured in triplicate using an ALP assay kit (Sigma-Aldrich, St. Louis, Mo.) in microtiter plates. The protein amount was determined with Bio-Rad protein assay reagent (Bio-Rad, Hercules, Calif.) using bovine serum albumin (BSA) as a standard. […]

Structure (SMILES)	Noggin blocking (Noggin)	Average (bone growth; N50 4 mM + BMP-2 1.5 ug)	Results (bone growth; N50 4 mM + BMP-2 1.5 ug)	Average (bone growth; N50 4 mM + BMP-2 5 ug)	Results (bone growth; N50 4 mM + BMP-2 5 ug)	Average (bone growth; N50 8 mM + BMP-2 1.5 ug)	Results (bone growth; N50 8 mM + BMP-2 1.5 ug)	Average (bone growth; N50 8 mM + BMP-2 5 ug)	Results (bone growth; N50 8 mM + BMP-2 5 ug)	Average (bone growth; N50 12 mM + BMP-2 1.5 ug)	Results (bone growth; N50 12 mM + BMP-2 1.5 ug)	Average (bone growth; N50 12 mM + BMP-2 5 ug)	Results (bone growth; N50 12 mM + BMP-2 5 ug)	bone growth (bone growth; N50 in combination with BMP-2, after 4 weeks, certain doses)	BMP-induced bone nodules [1]	function of endogenous Noggin / BMP-induced ALP activity (endogenous Noggin)
Cc1cc(C)nc(NC(=O)c2sc3ccccc3c2Cl)c1 [N2, 3-chloro-N-(4,6-dimethylpyridin-2-yl)benzo[b]thiophene-2-carboxamide]	confirmed Noggin blockers	–	–	–	–	–	–	–	–	–	–	–	–	–	–	–
N#CC(=Cc1cccc(Cl)c1)c1ccccn1 (racemic) [N50, 3-(3-chlorophenyl)-2-(pyridin-2-yl)acrylonitrile]	confirmed Noggin blockers	3	Bone made (4 of 4)	4.25	Bone made (4 of 4)	1.75	Bone made (2 of 4)	3.25	Bone made (3 of 4)	3.5	Bone made (4 of 4)	4.75	Bone made (4 of 4)	Certain doses showed improvement	potentiation of BMP-induced bone nodules	–
Cc1ccc(C(C#N)=Cc2cccc([N+](=O)[O-])c2)cc1 [N50-083, 3-(3-nitrophenyl)-2-(p-tolyl)acrylonitrile]	–	–	–	–	–	–	–	–	–	–	–	–	–	–	–	blocks function of endogenous Noggin by potentiating BMP-induced ALP activity
